Results as given in patent US20240117005A1, “NOVEL BICYCLIC PEPTIDES” (THE COUNCIL OF THE QUEENSLAND INSTITUTE OF MEDICAL RESEARCH, priority 2021, published 2024).
Entries after “also recorded” stand apart in the source; their conditions may differ. No end group written: not given here. *: point of attachment. Myristyl = CCCCCCCCCCCCCC*

Key:
[1] = test system: PKCθ, LSD1, p65, C-Rel, SET, pSTAT3; test: Determination of nuclear-associated proteins; assay type: cell-based, human; conditions: MDA-MB-231, 10 μM
Experimental: MDA-MB-231 cells were treated with DL-2 with concentration of 10 μM. MDA-MB-231 cells were treated with DL-2 or control and were permeabilised before being probed with the antibodies specific for PKCθ, LSD1, p65, C-Rel, SET, pSTAT3. Cover slips were mounted on glass microscope slides with ProLong nucblue glass Antifade reagent (Life Technologies). Digital images were analysed using ImageJ software (ImageJ, NIH, Bethesda, MD, USA) and graphs represent the mean fluorescence intensity in the nucleus or the cytoplasm compartments with significant differences calculated as per Mann-Whitney pairwise comparison.

[2] = target: T1, complex of PDL1-PTM1 and IMPα1 (Homo sapiens, UniProt P52292); test: DUOLINK proximity assay PDL1-PTM1 (PDL1-Ac) and IMPα1, MDA-MB-231; assay type: cell-based; conditions: for complex of PDL1-PTM1 and IMPα1 (DUOLINK): MDA-MB-231
T1 construct: endogenous in cells; host or cells: MDA-MB-231
Experimental: (§1) MDA-MB-231 cells were treated with DL-2; with concentrations ranging from 10 μM to 0.00975 μM. MDA-MB-231 cells were treated with DL-2 or Control and were permeabilized and were probed with the DUOLINK ligation assay. Cover slips were mounted on glass microscope slides with Prolong nucleus glass Antifade reagent (Life Technologies). PDL1-Ac and IMPα1 DUOLINK Digital images were analyzed using ImageJ software (ImageJ, NIH, Bethesda, MD, USA) and graphs represent the mean DOT Fluorescent Intensity in the nucleus or the cytoplasm compartments with significant differences calculated as per Kruskal-Wallis one-way ANOVA.
MDA-MB-231 of were treated with vehicle control, DL-2-Batch 1, DL-2-Batch 2, or linear PDL1 peptide. Cells were permeabilised and were probed with the DUOLINK ligation assay. Cover slips were mounted on glass microscope slides with Prolong nucleus glass Antifade reagent (Life Technologies). PDL1Ac and IMPα1 DUOLINK Digital images were analysed using ImageJ software (ImageJ, NIH, Bethesda, MD, USA) and graphs represent the mean DOT Fluorescent Intensity in the nucleus or the cytoplasm compartments with significant differences calculated as per One-Way ANOVA comparison.
(§2) (A) CT26, 4T1 or MDA-MB-231 Cells were treated with inhibitors for 72 hours. Following inhibition, media was removed and replaced with WST-1 cell proliferation reagent. Absorbance was recorded at 450 nm after 1 hour. Data represent a single independent experiment performed in triplicate. Results are graphed as mean +/− standard error (SE). […] PDL1Ac and IMPα1 DUOLINK Digital images were analysed using ImageJ software (ImageJ, NIH, Bethesda, MD, USA) and graphs represent the mean DOT Fluorescent Intensity in the nucleus or the cytoplasm compartments with significant differences calculated as per one-way ANOVA comparison. […] PDL1-unmodified and IMPα1 DUOLINK digital images were analysed using ImageJ software (ImageJ, NIH, Bethesda, MD, USA) and graphs represent the mean DOT fluorescent intensity in the nucleus or the cytoplasm compartments with significant differences calculated as per one-way ANOVA comparison. […]

[3] = target: T2, complex of PDL1 (unmodified) and IMPα1 (Homo sapiens, UniProt P52292); test: DUOLINK proximity assay PDL1 (unmodified) and IMPα1, MDA-MB-231; assay type: cell-based; conditions: for complex of PDL1 (unmodified) and IMPα1 (DUOLINK): MDA-MB-231
T2 construct: endogenous in cells; host or cells: MDA-MB-231
Experimental: (§3) To characterize unmodified PDL1 and IMPα1, MDA-MB-231 cells or CT26 cells were treated with vehicle control, DL-2-batch 1, DL-2-batch 2 or linear PDL1. Cells were permeabilised and were probed with the DUOLINK ligation assay. Cover slips were mounted on glass microscope slides with ProLong nucblue glass Antifade reagent (Life Technologies). PDL1 (unmodified) and IMPα1 DUOLINK Digital images were analysed using ImageJ software (ImageJ, NIH, Bethesda, MD, USA) and graphs represent the mean DOT Fluorescent Intensity in the nucleus or the cytoplasm compartments with significant differences calculated as per One-Way ANOVA comparison.
(A) CT26, 4T1 or MDA-MB-231 Cells were treated with inhibitors for 72 hours. Following inhibition, media was removed and replaced with WST-1 cell proliferation reagent. Absorbance was recorded at 450 nm after 1 hour. Data represent a single independent experiment performed in triplicate. Results are graphed as mean +/− standard error (SE). B) MDA-MB-231 or CT26 cancer cells were treated with vehicle control, DL-2-Batch 1 (original stock), DL-2-Batch 2 (current stock), DL-2-TBAB or linear PDL1. Cells were permeabilised and were probed with the DUOLINK ligation assay. Cover slips were mounted on glass microscope slides with ProLong nucblue glass Antifade reagent (Life Technologies). PDL1Ac and IMPα1 DUOLINK Digital images were analysed using ImageJ software (ImageJ, NIH, Bethesda, MD, USA) and graphs represent the mean DOT Fluorescent Intensity in the nucleus or the cytoplasm compartments with significant differences calculated as per one-way ANOVA comparison. […] PDL1-unmodified and IMPα1 DUOLINK digital images were analysed using ImageJ software (ImageJ, NIH, Bethesda, MD, USA) and graphs represent the mean DOT fluorescent intensity in the nucleus or the cytoplasm compartments with significant differences calculated as per one-way ANOVA comparison.
MDA-MB-231 and CT26 cells were treated with vehicle control, DL-2-Batch 1, DL-2-Batch 2, DL-2-TBAB (TBAB scaffold), DL-2-D (D-Isomer) or linear PDL1. […] PDL1 (unmodified) and IMPα1 and PDL1-PTM1 and IMPα1 DUOLINK digital images were analysed using ImageJ software (ImageJ, NIH, Bethesda, MD, USA) and graphs represent the mean DOT Fluorescent Intensity in the nucleus or the cytoplasm compartments with significant differences calculated as per One-Way ANOVA comparison. […]
MDA-MB-231 cells were treated with vehicle control (hollow nanoparticle), DL-2-NP at a concentration of 10 nM to 0.3 nM. […] PDL1 (unmodified) & IMPα1 DUOLINK digital images were analysed using ImageJ software (ImageJ, NIH, Bethesda, MD, USA) and graphs represent the mean DOT Fluorescent Intensity in the nucleus or the cytoplasm compartments with significant differences calculated as per One-WayANOVA comparison.

[4] = target: T3, complex of PDL1 (unmodified) and IMPα1 (Mus musculus, UniProt P52293); test: DUOLINK proximity assay PDL1 (unmodified) and IMPα1, CT26; assay type: cell-based
T3 construct: endogenous in cells; host or cells: CT26
Experimental: as §3
as §2, with “Following inhibition, media was removed and replaced with WST-1 cell proliferation reagent.” left out, “hour.” for “hour. Data represent a single independent experiment performed in triplicate. Results are graphed as mean +/− standard error (SE).”

[5] = target: T4, PDL2:IMPα1 complex (Homo sapiens, UniProt P52292); test: Binding specificity assay (DUOLINK PDL2 and IMPα1); assay type: cell-based; conditions: MDA-MB-231, any concentration (10 μM to 0.00975 μM)
T4 construct: with concentrations ranging from 10 μM to 0.00975 μM; endogenous in cells; host or cells: MDA-MB-231
Experimental: as §1, with “μM.” for “μM. MDA-MB-231 cells were treated with DL-2 or Control and were permeabilized and were probed with the DUOLINK ligation assay.”, “PDL2” for “PDL1-Ac”

Row | Molecule | off-target effects on nuclear proteins (PKCθ, LSD1, p65, C-Rel, SET, pSTAT3) [1] | complex of PDL1-PTM1 and IMPα1 (DUOLINK) [2] | IC50 ([2]; MDA-MB-231, 10 μM to 0.00975 μM) [nM] | complex of PDL1 (unmodified) and IMPα1 (DUOLINK) [3] | IC50 ([3]; MDA-MB-231, DUOLINK, read-out: IC50 for abrogating the PDL1 and IMPα1 complex) [nM] | complex of PDL1 (unmodified) and IMPα1 (DUOLINK) [4] | PDL2:IMPα1 complex (DUOLINK) [5] | complex of PDL1 (unmodified) and IMPα1 (DUOLINK) ([3]; listed as linear PDL1 peptide)
1 | CCCCCCCCCCCCCC(=O)NC(C)C(=O)NC1CSCc2cc3cc(c2)CSC[C@H](NC(=O)[C@H](Cc2ccccc2)NC(=O)[C@H](C(C)CC)NC(=O)[C@H](Cc2ccccc2)NC(=O)[C@H]([C@@H](C)O)NC(=O)C(CC(C)C)NC1=O)C(=O)N[C@@H](CCCNC(C)=N)C(=O)N[C@@H](CC(C)C)C(=O)N[C@@H](CCCNC(=N)N)C(=O)N[C@@H](CCCCN)C(=O)NCC(=O)N[C@@H](CCCNC(=N)N)C(=O)NC(C(=O)N[C@@H](CCSC)C(=O)NC(CCSC)C(=O)N[C@@H](CC(=O)O)C(=O)NC(C(=O)N[C@@H](CCCCN)C(=O)NC(CCCCN)C(=O)O)C(C)C)CSC3 (mixture of isomers) [DL-2] | No off-target effects were observed | abrogate the complex of PDL1 and IMPα1 in a dose dependent manner; also recorded: able to abrogate the complex | 39 | able to abrogate the complex | 39 | able to abrogate the complex | no significant effect | –
2 | LTFIFRLRKGRMMDVKK (Myristyl-LTFIFRLRKGRMMDVKK) [PDL1-L1, Myristyl- linear peptide, prototype] | – | unable to significantly prevent the complex; also recorded: no change | – | unable to significantly impact the complex; also recorded: no change | – | unable to significantly impact the complex; also recorded: no change | – | unable to significantly inhibit this complex
